Laboratory results: patent US20260265176A1, “SUBSTITUTED CYCLOHEXENE AND CYCLOHEXANE INHIBITORS OF ORNITHINE AMINOTRANSFERASE” (Northwestern University, priority 2023, published 2026)

Assays:
Format in all cases: biochemical
hGABA-AT = molecular target: T1, hGABA-AT (Homo sapiens, UniProt P80404); experiment: Inactivation of hGABA-AT, coupled enzyme assay (kinetic constants); conditions: for kinact/K1, hGABA-AT: inactivation of hGABA-AT, K1 and kinact not determinable
T1 construct: made in house; host or cells: Expi293 cells
Method: (§1) Recombinant human brain γ-aminobutyric acid aminotransferase (hGABA-AT) was expressed and purified according to literature procedures with slight modifications.^26 Briefly, pelleted Expi293 cells were resuspended into buffer A containing 50 mM K4O7P2 pH 8.6, 300 mM NaCl, and 100 μM PLP. The suspension was lysed using four repeat cycles of sonication (10 s on, 10 s off, 20% amplitude) on ice followed by the addition of 12.5 mM MgCl, 125 μM CaCl, and 5 mg of lyophilized DNase I. The lysate incubated on ice for 60 minutes with periodic inversions followed by a two step centrifugation procedure to pellet cell debris. Step one included centrifugation at 18000 rpm for 60 minutes at 4° C. followed by the collection of supernatant and a secondary step at 20000 rpm for 45 minutes. The supernatant was collected, and the sample was loaded into a disposable 0.45 μm bottle-top vacuum filter system to remove remaining cell debris. The resulting sample was then loaded onto a Co^2+ immobilized metal affinity chromatography column pre-equilibrated with buffer A. The column was washed with 40 mL of buffer A before hGABA-AT was eluted using a step-wise elution gradient of buffer A supplemented with 200 mM imidazole. The step-wise gradient totaled 5 steps of increasing imidazole concentration (1 mM, 2 mM, 5 mM, 100 mM, 200 mM). Individual 4 mL fractions containing hGABA-AT were combined and concentrated to a volume of 3 mL using a 30000 Da molecular weight cutoff (MWCO) Amicon Ultra centrifugal filter device. For further purification, the sample was loaded onto a HiLoad Superdex-200PG column (16 mm×600 mm) pre-equilibrated with buffer A and subjected to size exclusion chromatography at a flow rate of 0.25 mL/min. PYCR1 was purified according to previously published protocols.^38 Coupled enzyme assays for hGABA-AT, hOAT, Ala-AT, and Asp-AT were carried out according to previous procedures.^26

hOAT [1] = molecular target: T2, hOAT (Homo sapiens, UniProt P04181); experiment: Inactivation of hOAT, coupled enzyme assay (kinetic constants); conditions: for kinact / kinact/K1, hOAT / Ki: inactivation of hOAT; for Ki: read-out: K1, hOAT
T2 construct: made in house; host or cells: Escherichia coli BL21 (DE3)
T2 sequence (P04181 26-439): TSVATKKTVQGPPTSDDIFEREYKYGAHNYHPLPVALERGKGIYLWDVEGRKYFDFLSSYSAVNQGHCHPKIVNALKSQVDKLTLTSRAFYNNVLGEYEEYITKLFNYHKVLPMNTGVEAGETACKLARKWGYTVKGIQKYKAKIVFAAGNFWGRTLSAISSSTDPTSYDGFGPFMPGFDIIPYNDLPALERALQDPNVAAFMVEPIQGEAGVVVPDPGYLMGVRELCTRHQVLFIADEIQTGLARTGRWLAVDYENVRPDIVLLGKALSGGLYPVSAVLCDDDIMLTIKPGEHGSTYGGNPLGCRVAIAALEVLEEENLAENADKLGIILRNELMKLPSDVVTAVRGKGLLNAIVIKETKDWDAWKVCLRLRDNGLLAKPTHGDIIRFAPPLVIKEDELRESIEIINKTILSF
Method: as §1

hOAT [2] = molecular target: T2, hOAT; experiment: Time-dependent reactivation experiment (dialysis) of hOAT inactivated by 17
Method: Mass spectrometry, however, might differentiate those possibilities. To confirm irreversible inactivation of hOAT by 17, a time-dependent reactivation experiment (dialysis) was performed. […] Aliquots at different time intervals were collected and assayed to detect restored enzyme activity. […] It takes approximately 10 equiv of 17, however, to produce complete enzyme inactivation.
The dialysis experiment was conducted using previous protocols.^26,38

hOAT [3] = molecular target: T2, hOAT; experiment: Transient-state stopped-flow spectrophotometry of hOAT reacting with inactivator; conditions: hyperbolic fit of kobs vs inactivator concentration, hOAT 17 μM, 20° C.
Method: Vertical arrows indicate the sequence of the observed spectra after initiating the experiment. […] A sample of hOAT (17 μM) was mixed with 17 (0-11 mM) using a stopped-flow spectrophotometer, and the reaction was observed between 300 and 800 nm for 150 sec using CCD detection. Several representative spectra from the data set are shown here.
FIG. 16C depicts the dependence of observed rate constants on the concentration of [5]. Fitting to a rectangular hyperbolic function (kobs=klimit[5]/K[5]+[5] returned an observed limiting rate constant of 0.20±0.01 s^−1 and a dissociation constant for reversible formation of the external aldimine of 2.9±0.4 mM.
The data collected using stopped-flow spectrophotometry serves as additional evidence for the proposed mechanism. […]
The subsequent increase in absorbance at 325 nm would thus report the accumulation of both the turnover and inhibition products, with no difference in rates.
Transient-State Kinetic Characterization of hOAT with […]: A sample of hOAT (17 μM) was mixed with 17 (0-11 mM) at 20° C. using a rapid mixing stopped-flow spectrophotometer (TgK Scientific) equipped with charge-coupled device (CCD) detection, allowing for the collection time-resolved spectra. […] A reconstructed time zero point was included in the data and was obtained by adding the spectrum of the enzyme and the spectrum of the inhibitor when measured separately. […]

hOAT [4] = molecular target: T2, hOAT; experiment: Partition ratio / turnover number by titration of hOAT with inactivator; conditions: for partition ratio: turnover number minus one
Excerpt: Determination of the Turnover Mechanism to Metabolites The partition ratio of an MBI is the ratio of compound that acts as a substrate relative to the compound that inactivates the enzyme. Ideally, plotting the enzyme activity remaining after inactivation versus equivalents of compound added will provide a straight line from 100 to 0% enzyme activity remaining. The x-intercept of this line would give the number of inactivator molecules required to inactivate a single enzyme active site (the turnover number). This number represents the total number of compound molecules that were engaged by the active site until the enzyme was inactivated. Of these compounds, only the final one will inactivate the enzyme, and the others will have been consumed as substrates. As a result, the partition ratio is the turnover number minus one (assuming a 1:1 stoichiometry of inactivator to enzyme in the inactivated complex).
The partition ratio of 17 was determined by titrating a known amount of hOAT with varying equivalents of inactivator (FIG. 7). The linear relationship of the remaining enzymatic activity was extrapolated to yield the exact number of equivalents of 17 to inactivate the enzyme completely. From this we determined the turnover number to be 4.27 and thus the partition ratio of 17 to be 3.27.
The turnover number for 17 was determined to be 2.2 by titrating a fixed amount of hOAT with varying equivalents of 17, measuring the remaining enzyme activities for the different equivalents of inhibitor, and employing the method of Pham et al.^32 (FIG. 24). The partition ratio, therefore, is 1.2.
The partition ratio was calculated using previous protocols.^26,28

[5] = listed as (±) 22, hydrochloride
[6] = from turnover number/partition ratio study, FIG. 24

T1 sequence (P80404 29-500): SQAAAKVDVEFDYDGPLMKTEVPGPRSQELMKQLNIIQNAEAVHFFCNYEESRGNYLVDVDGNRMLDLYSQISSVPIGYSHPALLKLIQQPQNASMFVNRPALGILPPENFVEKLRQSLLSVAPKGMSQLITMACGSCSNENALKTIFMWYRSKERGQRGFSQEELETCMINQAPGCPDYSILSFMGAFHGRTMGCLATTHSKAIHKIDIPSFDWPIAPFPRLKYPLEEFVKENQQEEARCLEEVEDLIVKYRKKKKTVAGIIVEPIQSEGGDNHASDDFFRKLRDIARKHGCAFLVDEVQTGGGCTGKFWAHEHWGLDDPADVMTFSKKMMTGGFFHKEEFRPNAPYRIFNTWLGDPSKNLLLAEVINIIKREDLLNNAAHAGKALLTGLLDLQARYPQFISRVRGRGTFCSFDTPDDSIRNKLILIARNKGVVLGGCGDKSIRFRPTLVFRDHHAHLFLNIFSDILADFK

Row | Structure (SMILES) | inhibition of hGABA-AT (in words) (hGABA-AT; hydrochloride) | inhibition of hGABA-AT (in words) (hGABA-AT; [5]) | inhibition of hOAT (in words) (hOAT [1]; hydrochloride) | inhibition of hOAT (in words) (hOAT [1]; [5]) | kinact/K1, hGABA-AT (hGABA-AT) | enzymatic activity recovered after dialysis (hOAT [2]; 72 hours of dialysis, hOAT treated with 0.6-10 equivalents of 17) | equivalents needed to produce complete enzyme inactivation (hOAT [2]; hOAT) | observed limiting rate constant (hOAT [3]) | Kd (hOAT [3]; read-out: dissociation constant for reversible formation of the external aldimine) | kinact (hOAT [1]) | kinact/K1, hOAT (hOAT [1]) | Ki (hOAT [1]) | kinact/KI (hOAT [1]; read-out: overall efficiency (kinact/KI) against hOAT (converted)) | share of compound undergoing turnover to a product and PMP (hOAT [4]; [6]) | share of turnover resulting in inactivation (hOAT [4]; [6]) | turnover number (hOAT [4]; linear extrapolation of remaining activity, FIG. 7) | turnover number (hOAT [4]; method of Pham et al., FIG. 24) | partition ratio (hOAT [4]; FIG. 7) | partition ratio (hOAT [4]; FIG. 24) | kinact/KI, fold less effective than that of 17 for hOAT (hOAT [1]; relative to 17)
1 | Cl.N[C@@H]1C[C@H](C(=O)O)CC(F)(F)C1 (racemic) [(±)22, cis-5-Amino-3,3-difluorocyclohexane-1-carboxylic acid hydrochloride] | Weak reversible inhibition at 10 mM | little or no inhibitory effect | No inhibition up to 10 mM | little or no inhibitory effect | – | – | – | – | – | – | – | – | – | – | – | – | – | – | – | –
2 | Cl.N[C@H]1C=C(C(=O)O)CC(F)(F)C1 [Compound 17, (R)-3-amino-5,5-difluorocyclohex-1-ene-1-carboxylic acid hydrochloride] | – | – | – | – | 2.83 M⁻¹ s⁻¹ | No enzymatic activity was recovered | approximately 10 equiv | 0.20 ± 0.01 s⁻¹ | 2900 ± 400 µM | 0.00467 s⁻¹ | 17.3 M⁻¹ s⁻¹ | 270 ± 70 µM | 17.3 M⁻¹ s⁻¹ | 55% | 45% | 4.27 | 2.2 | 3.27 | 1.2 | –
3 | Cl.N[C@H]1CC(C(=O)O)=CC(F)(F)C1 [Compound 17a, (S)-5-amino-3,3-difluorocyclohex-1-ene-1-carboxylic acid hydrochloride] | – | – | – | – | 2 M⁻¹ s⁻¹ | – | – | – | – | 0.0025 s⁻¹ | 1.83 M⁻¹ s⁻¹ | 1200 ± 400 µM | – | – | – | – | – | – | – | 10 fold
